Source: patent publication US9523100B2, “Pesticidal compositions and related methods” (DOW AGROSCIENCES LLC, priority 2013, dated 2016)

Experiments:
[1] = tested on: Green Peach Aphid (GPA) (Myzus persicae) (MYZUPE); assay: Bioassay for Green Peach Aphid (GPA), foliar spray on cabbage seedlings; format: in vivo; conditions: 72 h, 200 ppm foliar spray on cabbage seedlings, graded after three days, Abbott corrected % control, read-out: GPA 200 ppm, % Control (or Mortality) rating
Source text: Bioassay for Green Peach Aphid (GPA) (Myzus persicae) (MYZUPE)
The green peach aphid (Myzus persicae) is the most significant aphid pest of peach trees, causing decreased growth, shriveling of the leaves, and the death of various tissues. It is also hazardous because it acts as a vector for the transport of plant viruses, such as potato virus Y and potato leafroll virus to members of the nightshade/potato family Solanaceae, and various mosaic viruses to many other food crops. GPA attacks such plants as broccoli, burdock, cabbage, carrot, cauliflower, daikon, eggplant, green beans, lettuce, macadamia, papaya, peppers, sweet potatoes, tomatoes, watercress, and zucchini, among other plants GPA also attacks many ornamental crops such as carnation, chrysanthemum, flowering white cabbage, poinsettia, and roses. GPA has developed resistance to many pesticides.
Cabbage seedlings grown in 3-inch pots, with 2-3 small (3-5 cm) true leaves, were used as test substrate. The seedlings were infested with 20-50 GPA (wingless adult and nymph stages) one day prior to chemical application. Four pots with individual seedlings were used for each treatment. Test compounds (2 mg) were dissolved in 2 mL of acetone/methanol (1:1) solvent, forming stock solutions of 1000 ppm test compound. The stock solutions were diluted 5× with 0.025% Tween 20 in water to obtain the solution at 200 ppm test compound. A hand-held aspirator-type sprayer was used for spraying a solution to both sides of […] leaves until runoff. Reference plants (solvent check) were sprayed with the diluent only containing 20% by volume of acetone/methanol (1:1) solvent. Treated plants were held in a holding room for three days at approximately 25° C. and ambient relative humidity (RH) prior to grading. Evaluation was conducted by counting the number of live aphids per plant under a microscope. Percent control was measured by using Abbott's correction formula (W. S. Abbott, “A Method of Computing the Effectiveness of an Insecticide” J. Econ. Entomol. 18 (1925), pp. 265-267) as follows. Corrected % Control=100*(X−Y)/X
X=No. of live aphids on solvent check plants and
Y=No. of live aphids on treated plants
Biological Data for Green Peach Aphid (GPA) (MYZUPE) and Sweetpotato Whitefly-Crawler (WF) (BEMITA)” (see table section).
(§1) The mortality efficiency of the pesticidal compounds against GPA and WF insects was determined after treatment.

[2] = tested on: Sweetpotato Whitefly-Crawler (WF) (Bemisia tabaci) (BEMITA); assay: Insecticidal test for Sweetpotato Whitefly-Crawler (WF) in foliar spray assay on cotton plants; format: in vivo; conditions: 216 h, 200 ppm foliar spray on cotton plants, graded after 9 days, Abbott corrected % control, read-out: WF 200 ppm, % Control (or Mortality) rating
Source text: Insecticidal Test for Sweetpotato Whitefly-Crawler (WF) (Bemisia tabaci) (BEMITA) in Foliar Spray Assay
The sweetpotato whitefly (Bemisia tabaci) has been reported as a serious pest of cultivated crops world-wide. It has an extremely wide host range attacking more than 500 species of plants from 63 plant families. Weeds often serve as alternate hosts of crop pests. Direct feeding damage is caused by the piercing and sucking sap from the foliage of plants. This feeding causes weakening and early wilting of the plant and reduces the plant growth rate and yield Indirect damage results by the accumulation of honeydew produced by the whiteflies. Honeydew serves as a substrate for the growth of black sooty mold on leaves and fruit reducing photosynthesis and lessens the market value of the plant or yield. […] The sweetpotato whitefly is considered the most common and important whitefly vector of plant viruses worldwide.
Cotton plants (Gossypium hirsutum) grown in 3-inch pots, with 1 small (4-5 cm) true leaves, were used as test substrate. The plants were infested with 200-400 whitefly eggs 4-5 days prior to chemical application. Four pots with individual plants were used for each treatment. Test compounds (2 mg) were dissolved in 1 mL of acetone solvent, forming stock solutions of 2000 ppm test compound. The stock solutions were diluted 10× with 0.025% Tween 20 in water (diluents) to obtain the solution at 200 ppm test compound. A hand-held aspirator-type sprayer was used for spraying a solution to both sides of cotton leaves until runoff. Reference plants (solvent check) were sprayed with the diluent only containing 10% by volume of acetone solvent. Treated plants were held in a holding room for 9 days at approximately 25° C. and ambient relative humidity (RH) prior to grading. Evaluation was conducted by counting the number of live 3-4 nymph stage per plant under a microscope. Percent control was measured by using Abbott's correction formula (W. S. Abbott, “A Method of Computing the Effectiveness of an Insecticide” J. Econ. Entomol. 18 (1925), pp. 265-267) as follows.
Biological Data for Green Peach Aphid (GPA) (MYZUPE) and Sweetpotato Whitefly-Crawler (WF) (BEMITA)” (see table section). Corrected % Control=100*(X−Y)/X
X=No. of live nymphs on solvent check plants and
Y=No. of live nymphs on treated plants
as §1

Question: With `CCN(C(=O)CC1CNC1=O)c1cn(-c2cccnc2)nc1Cl` (stereo not shown) [Compound F71, N-(3-chloro-1-(pyridin-3-yl)-1H-pyrazol-4-yl)-N-ethyl-2-(2-oxoazetidin-3-yl)acetamide] as the molecule, how does the mortality at 200 ppm [1] read?
Answer: 80 to 100%

Question: And the mortality at 200 ppm [2]?
Answer: 80 to 100%

Question: Which mortality at 200 ppm [1] does the source give for `CCN(C(=O)C1CCN(C(=O)c2cccnc2)CC1)c1cn(-c2cccnc2)nc1Cl` [FA8, N-(3-Chloro-1-(pyridin-3-yl)-1H-pyrazol-4-yl)-N-ethyl-1-nicotinoylpiperidine-4-carboxamide] here?
Answer: 80 to 100%

Question: What about the mortality at 200 ppm [2] of the same molecule?
Answer: 0 to 80%

Question: What does the source list for `CCN(C(=O)CCC(=O)N(C)CC(F)(F)F)c1cn(-c2cccnc2)nc1Cl` [Compound F85, N1-(3-Chloro-1-(pyridin-3-yl)-1H-pyrazol-4-yl)-N1-ethyl-N4-methyl-N4-(2,2,2-trifluoroethyl) succinamide]?
Answer: mortality at 200 ppm [1]: 80 to 100%; mortality at 200 ppm [2]: 80 to 100%

Question: `CCN(C(=O)CN(C)C(=O)CCC(F)(F)F)c1cn(-c2cccnc2)nc1Cl` [Compound F5, N-(2-((3-Chloro-1-(pyridin-3-yl)-1H-pyrazol-4-yl)(ethyl)amino)-2-oxoethyl)-4,4,4-trifluoro-N-methylbutanamide] was tested. Which mortality at 200 ppm [1] did it give?
Answer: 80 to 100%

Question: What about the mortality at 200 ppm [2] of the same molecule?
Answer: 80 to 100%

Question: With `CCN(C(=O)CCC(=O)N(C)Cc1ccc(F)cc1)c1cn(-c2cccnc2)nc1Cl` [Compound F118, N1-(3-Chloro-1-(pyridin-3-yl)-1H-pyrazol-4-yl)-N1-ethyl-N4-(4-fluorobenzyl)-N4-methylsuccinamide] as the molecule, how does the mortality at 200 ppm [1] read?
Answer: 80 to 100%

Question: And the mortality at 200 ppm [2]?
Answer: 80 to 100%

Question: With `CCN(C(=O)CC/C(=N\OCC1CC(F)(F)C1)c1cccs1)c1cn(-c2cccnc2)nc1Cl` [FA30, (E)-N-(3-Chloro-1-(pyridin-3-yl)-1H-pyrazol-4-yl)-4-(((3,3-difluorocyclobutyl)methoxy)imino)-N-ethyl-4-(thiophen-2-yl)butanamide] as the molecule, how does the mortality at 200 ppm [1] read?
Answer: < 0%

Question: What about the mortality at 200 ppm [2] of the same molecule?
Answer: 0 to 80%

Question: Which mortality at 200 ppm [1] does the source give for `CN(C(=O)CCC(=O)N1CCCCCC1)c1cn(-c2cccnc2)nc1Cl` [Compound F27, 4-(Azepan-1-yl)-N-(3-chloro-1-(pyridin-3-yl)-1H-pyrazol-4-yl)-N-methyl-4-oxobutanamide] here?
Answer: 0 to 80%

Question: What about the mortality at 200 ppm [2] of the same molecule?
Answer: 80 to 100%

Question: With `CCN1CC(CCCC(=O)N(CC)c2cn(-c3cccnc3)nc2Cl)C1=O` (stereo not shown) [Compound F81, N-(3-Chloro-1-(pyridin-3-yl)-1H-pyrazol-4-yl)-N-ethyl-4-(1-ethyl-2-oxoazetidin-3-yl)butanamide] as the molecule, how does the mortality at 200 ppm [1] read?
Answer: 80 to 100%

Question: And the mortality at 200 ppm [2]?
Answer: 80 to 100%

Question: With `CCN(C(=O)C1CCCN(C(=O)CC(F)(F)F)C1)c1cn(-c2cccnc2)nc1Cl` (stereo not shown) [FA42, N-(3-Chloro-1-(pyridin-3-yl)-1H-pyrazol-4-yl)-N-ethyl-1-(3,3,3-trifluoropropanoyl)piperidine-3-carboxamide] as the molecule, how does the mortality at 200 ppm [1] read?
Answer: 80 to 100%

Question: And the mortality at 200 ppm [2]?
Answer: 0 to 80%

Question: What does the source list for `CCN(C(=O)CC/C(C)=N/OCc1ccc(OC(F)(F)F)cc1)c1cn(-c2cccnc2)nc1Cl` [FA40, (E/Z)-N-(3-Chloro-1-(pyridin-3-yl)-1H-pyrazol-4-yl)-N-ethyl-4-(((4-(trifluoromethoxy)benzyl)oxy)imino)pentanamide]?
Answer: mortality at 200 ppm [1]: 0 to 80%; mortality at 200 ppm [2]: 80 to 100%

Question: What does the source list for `CCN(C(=O)CCC(=O)NCc1ccc(F)cc1)c1cn(-c2cccnc2)nc1Cl` [Compound F80, N1-(3-Chloro-1-(pyridin-3-yl)-1H-pyrazol-4-yl)-N1-ethyl-N4-(4-fluorobenzyl)succinamide]?
Answer: mortality at 200 ppm [1]: 0 to 80%; mortality at 200 ppm [2]: 80 to 100%

Question: For `CC(=O)N[C@H]1C=C[C@@H](C(=O)N(C)c2cn(-c3cccnc3)nc2Cl)C1` [Compound F24, (1S,4R)-4-acetamido-N-(3-chloro-1-(pyridin-3-yl)-1H-pyrazol-4-yl)-N-methyl-cyclopent-2-enecarboxamide], which mortality at 200 ppm [1] is on record?
Answer: 80 to 100%

Question: And the mortality at 200 ppm [2]?
Answer: 80 to 100%

Question: `CC(CCC(=O)N(C)c1cn(-c2cccnc2)nc1Cl)=NOC(C)C` (mixture of isomers) [Compound F130, (E/Z)-N-(3-Chloro-1-(pyridin-3-yl)-1H-pyrazol-4-yl)-4-(isopropoxyimino)-N-methylpentanamide] was tested. Which mortality at 200 ppm [1] did it give?
Answer: 80 to 100%

Question: What about the mortality at 200 ppm [2] of the same molecule?
Answer: 80 to 100%

Question: How did the mortality at 200 ppm [1] turn out when `CCN(C(=O)CCCC1CNC1=O)c1cn(-c2cccnc2)nc1Cl` (stereo not shown) [Compound F58] was run?
Answer: 80 to 100%

Question: What about the mortality at 200 ppm [2] of the same molecule?
Answer: 80 to 100%

Question: Which results are given for `CCN(C(=O)CCC(C)=NOC)c1cn(-c2cccnc2)nc1Cl` (mixture of isomers) [Compound F92, (E/Z)-N-(3-chloro-1-(pyridin-3-yl)-1H-pyrazol-4-yl)-N-ethyl-4-(methoxyimino) pentanamide]?
Answer: mortality at 200 ppm [1]: 80 to 100%; mortality at 200 ppm [2]: 80 to 100%

Question: Which results are given for `O=C1CCCN1CC(=O)N(CC1CC1)c1cn(-c2cccnc2)nc1Cl` [Compound F98, N-(3-chloro-1-(pyridin-3-yl)-1H-pyrazol-4-yl)-N-(cyclopropylmethyl)-2-(2-oxopyrrolidin-1-yl)acetamide]?
Answer: mortality at 200 ppm [1]: 80 to 100%; mortality at 200 ppm [2]: 80 to 100%

Question: How did the mortality at 200 ppm [1] turn out when `CCN(C(=O)CC/C(C)=N/OCCCC(F)(F)F)c1cn(-c2cccnc2)nc1Cl` [FA19, (E/Z)-N-(3-Chloro-1-(pyridin-3-yl)-1H-pyrazol-4-yl)-N-ethyl-4-((4,4,4-trifluorobutoxy)imino) pentanamide] was run?
Answer: 0 to 80%

Question: What about the mortality at 200 ppm [2] of the same molecule?
Answer: 80 to 100%

Question: Which mortality at 200 ppm [1] does the source give for `CCN(C(=O)CCC1CN(C)C1=O)c1cn(-c2cccnc2)nc1Cl` (stereo not shown) [Compound F119, N-(3-Chloro-1-(pyridin-3-yl)-1H-pyrazol-4-yl)-N-ethyl-3-(1-methyl-2-oxoazetidin-3-yl)propanamide] here?
Answer: 80 to 100%

Question: What about the mortality at 200 ppm [2] of the same molecule?
Answer: 80 to 100%

Question: `CCSC(=O)N(C)CCC(=O)N(CC)c1cn(-c2cccnc2)nc1Cl` [Compound F40, S-Ethyl (3-((3-chloro-1-(pyridin-3yl)-1H-pyrazol-4-yl)(ethyl)amino)-3-oxopropyl)(methyl) carbamothioate] was tested. Which mortality at 200 ppm [1] did it give?
Answer: 0 to 80%

Question: And the mortality at 200 ppm [2]?
Answer: 0 to 80%

Question: Which mortality at 200 ppm [1] does the source give for `CCN(C(=O)C1CN(C(=O)CC(F)(F)F)C1)c1cn(-c2cccnc2)nc1Cl` [Compound P24, N-(3-Chloro-1-(pyridin-3-yl)-1H-pyrazol-4-yl)-N-ethyl-1-(3,3,3-trifluoropropanoyl)azetidine-3-carboxamide] here?
Answer: 80 to 100%

Question: And the mortality at 200 ppm [2]?
Answer: 0 to 80%

Question: With `CCN(C(=O)CN(C)C(=O)CC(F)(F)F)c1cn(-c2cccnc2)nc1Cl` [Compound F120, N-(2-((3-Chloro-1-(pyridin-3-yl)-1H-pyrazol-4-yl)(ethyl)amino)-2-oxoethyl)-3,3,3-trifluoro-N-methylpropanamide] as the molecule, how does the mortality at 200 ppm [1] read?
Answer: 80 to 100%

Question: What about the mortality at 200 ppm [2] of the same molecule?
Answer: 80 to 100%

Question: For `CCN(C(=O)CCC1CCN(CCC2CC2(F)F)C1=O)c1cn(-c2cccnc2)nc1Cl` (stereo not shown) [FA62, N-(3-Chloro-1-(pyridin-3-yl)-1H-pyrazol-4-yl)-3-(1-(2-(2,2-difluorocyclopropyl)ethyl)-2-oxopyrrolidin-3-yl)-N-ethylpropanamide], which mortality at 200 ppm [1] is on record?
Answer: 80 to 100%

Question: And the mortality at 200 ppm [2]?
Answer: 80 to 100%

Question: With `CCN(C(=O)CCNC(=O)C1CCN(C(C)=O)CC1)c1cn(-c2cccnc2)nc1Cl` [Compound F112, 1-Acetyl-N-(3-((3-chloro-1-(pyridin-3-yl)-1H-pyrazol-4-yl)(ethyl)amino)-3-oxopropyl)piperidine-4-carboxamide] as the molecule, how does the mortality at 200 ppm [1] read?
Answer: 0 to 80%

Question: And the mortality at 200 ppm [2]?
Answer: 80 to 100%
